US20240139219A1, “COMBINATION OF A SERCA2 INHIBITOR AND A STING ACTIVATOR FOR USE IN TREATING AND/OR PREVENTING CANCER” (Centre national de la recherche scientifique, priority 2021, published 2024)

Key:
[1] = tested on: mouse embryonic fibroblasts (MEFs); test: CellTiter-Glo Luminescent Cell Viability Assay in MEFs; assay type: cell-based; conditions: MEF; ADUS-100 5 μM, TA 12.5 nM or 6.25 nM, single or combined; viability 24 h after treatment (FIG. 6B)
Method: (§1) FIG. 6: Inhibition of SERCA2 (ATP2A2) in combination with STING agonist increases inflammatory responses in mouse embryonic fibroblasts (MEFs). • (A) MEFs were cultured for 24 h prior to 6 h stimulation with ADUS-100 (5 μM) in combination or not with 12.5 nM or 6.25 nM of thapsigargin (TA). Graphs present fold increase lfnβ mRNA levels, as compared to unstimulated cells. • (B) MEFs were cultured for 24 h prior to 6 h stimulation with ADUS-100 (5 μM) in combination or not with 12.5 nM or 6.25 nM of TA. Graphs present viability level, as compared to unstimulated cells.
(§2) Murine embryonic fibroblasts (MEF) and murine pancreatic cancer cell lines (KPC and Panc02) were maintained in Dulbecco's modified Eagle's medium (DMEM) supplemented with 10% fetal bovine serum (FBS), 1% penicillin/streptomycin and 1% glutamine.
(§3) Cells were treated during 6 h with ADUS-100 (5 μM) in presence or not of thapsigargin (TA) at 12.5 nM or 6.25 nM in complete medium.
The CellTiter-Glo® Luminescent Cell Viability Assay was used to determine the number of viable cells 24 h after treatment.

[2] = tested on: Panc02 murine pancreatic cell line; test: RT-qPCR of Cxcl10 mRNA in Panc02 cells stimulated with ADUS-100 with or without thapsigargin; assay type: cell-based; conditions: Panc02, 6 h, TA 12.5 nM or 6.25 nM in combination with ADU-S100 5 μM (FIG. 7C)
Method: (§4) FIG. 7: Inhibition of SERCA2 (ATP2A2) in combination of STING agonist increases inflammatory responses in cancer cell lines. • (A) The KPC murine pancreatic cell line was cultured 24 h prior to 6 h stimulation with ADUS-100 (5 μM) in combination or not with 12.5 nM or 6.25 nM TA. Graphs present fold increase Cxcl10 mRNA levels, an interferon responding gene, as compared to unstimulated cells. • (B) KPC cells were cultured 24 h prior 6 h stimulation with ADUS-100 (5 μM) in combination or not with 12.5 nM or 6.25 nM TA. Graphs present viability level, as compared to unstimulated cells. • (C) The Panco2 murine pancreatic cell line was cultured 24 h prior to 6 h stimulation with ADUS-100 (5 μM) in combination or not with 12.5 nM or 6.25 nM TA. Graphs present fold increase Cxcl10 mRNA levels, an interferon responding gene, as compared to unstimulated cells. • (D) Panco2 cells were cultured 24 h prior to 6 h stimulation with ADUS-100 (5 μM) in combination or not with 12.5 nM or 6.25 nM TA. Graphs present viability level, as compared to unstimulated cells.
(§5) Murine embryonic fibroblasts (MEF) and murine pancreatic cancer cell lines (KPC and Panc02) were maintained in Dulbecco's modified Eagle's medium (DMEM) supplemented with 10% fetal bovine serum (FBS), 1% penicillin/streptomycin and 1% glutamine. […]

[3] = tested on: KPC murine pancreatic cell line; test: RT-qPCR of Cxcl10 mRNA in KPC cells stimulated with ADUS-100 with or without thapsigargin; assay type: cell-based; conditions: 6 h, TA 12.5 nM or 6.25 nM in combination with ADU-S100 5 μM (FIG. 7A)
Method: as §4, §5

Panc02 cells = test: CellTiter-Glo Luminescent Cell Viability Assay in Panc02 cells; assay type: cell-based, murine; conditions: ADUS-100 5 μM, TA 12.5 nM or 6.25 nM, single or combined, viability 24 h after treatment (FIG. 7D)
Method: as §4, §5

[4] = tested on: mouse embryonic fibroblasts (MEFs); test: RT-qPCR of Ifnβ mRNA in MEFs stimulated with ADUS-100 with or without thapsigargin; assay type: cell-based; conditions: MEF, 6 h, TA 12.5 nM or 6.25 nM in combination with ADU-S100 5 μM (FIG. 6A)
Method: as §1, §2, §3
(§6) RNA was extracted using Trizol (Invitrogen) and treated with TURBO DNase (Ambion) according to manufacturer's protocols. Reverse transcription (SuperScript IV reverse transcriptase, Invitrogen) and qPCR using specific primers were performed using SYBR Green Master Mix (Takara) and LightCycler 480 cycler (Roche). mRNA levels were normalized to HSP90 mRNA levels. […]

mice = test: In vivo toxicity, subcutaneous injection, macroscopic observation of skin at the injection site; conditions: 3 times one injection every 3 day, TA 50 nM, ADUS-100 5 μM, or both (Combi), data not shown
KPC cells = test: CellTiter-Glo Luminescent Cell Viability Assay in KPC cells; assay type: cell-based, murine; conditions: ADUS-100 5 μM, TA 12.5 nM or 6.25 nM, single or combined, viability 24 h after treatment (FIG. 7B)
Method: as §4, §5

SERCA2 = SERCA2 (Homo sapiens, UniProt P16615); conditions: read-out: IC50 in vitro for SERCA2 (for calcium entry); cited from earlier work
Trex1 KO MEFs = test: RT-qPCR of Ifnβ, Cxcl10 and Isg15 mRNA in Trex1 KO MEF (model of chronic STING activation); assay type: cell-based, murine; conditions: Trex1-deficient MEF, 2 h treatment (FIG. 2)
Method: MEF^Trexl−/− cells were treated or not with CPA (A-C) or thapisgargin (D-E) for 2 h. Graphs present fold increase Ifnβ, Cxcl10 and Isg15 mRNA levels, as compared to unstimulated cells. Graphs present mean value from duplicates (A-C) or average of 2 independent experiments (D-F). Error bars: standard deviation.
(§7) Wild type murine embryonic fibroblasts (WT-MEF) and MEF-Trex^−/−, were maintained in Dulbecco's modified Eagle's medium (DMEM) supplemented with 10% fetal bovine serum (FBS), 1% penicillin/streptomycin and 1% glutamine.
RNA was extracted using Trizol (Invitrogen) and treated with TURBO DNase (Ambion) according to manufacturer's protocols. Reverse transcription (SuperScript IV reverse transcriptase, Invitrogen) and qPCR using specific primers were performed using SYBR Green Master Mix (Takara) and LightCycler 480 cycler (Roche). mRNA levels were normalized to HSP90 mRNA levels.
WT-MEF stimulated or not with DMXAA, a murine STING ligand which triggers STING-dependent inflammatory responses (FIG. 1); and Trex I KO MEF which is a model of chronic STING activation (FIG. 2).
WT-MEF or Trex I KO MEF were treated for 2 h with SERCA2 inhibitors thapsigargin (TA) or CPA.

WT-MEF cells = test: RT-qPCR of Ifnβ, Cxcl10 and Isg15 mRNA in WT-MEF stimulated with DMXAA; assay type: cell-based, murine; conditions: WT-MEF under DMXAA stimulation (200 μM, 2 h) in combination with CDN-1163 (FIG. 4A)
Method: WT-MEF cells were cultured 24 h prior 2h stimulation with DMXAA (200 μM) in combination or not with CPA (A-C) or thapsigargin (D-E). Graphs present fold increase Ifnβ, Cxcl10 and Isg15 mRNA levels, as compared to unstimulated cells. Graphs present mean value from duplicates.
WT-MEF cells were cultured 24 h prior 2 h stimulation with DMXAA (200 μM) in combination or not with CDN-1163 (A-C). Graphs present fold increase […], Cxcl10 and Isg15 mRNA levels, as compared to unstimulated cells. Graphs present mean value from duplicates.
as §7, §6
To this aim, WT-MEFs were treated with the CDN-1163 SERCA2 agonist, and interferon response gene levels were assessed (FIG. 4).

Chain of SERCA2 (P16615 whole entry): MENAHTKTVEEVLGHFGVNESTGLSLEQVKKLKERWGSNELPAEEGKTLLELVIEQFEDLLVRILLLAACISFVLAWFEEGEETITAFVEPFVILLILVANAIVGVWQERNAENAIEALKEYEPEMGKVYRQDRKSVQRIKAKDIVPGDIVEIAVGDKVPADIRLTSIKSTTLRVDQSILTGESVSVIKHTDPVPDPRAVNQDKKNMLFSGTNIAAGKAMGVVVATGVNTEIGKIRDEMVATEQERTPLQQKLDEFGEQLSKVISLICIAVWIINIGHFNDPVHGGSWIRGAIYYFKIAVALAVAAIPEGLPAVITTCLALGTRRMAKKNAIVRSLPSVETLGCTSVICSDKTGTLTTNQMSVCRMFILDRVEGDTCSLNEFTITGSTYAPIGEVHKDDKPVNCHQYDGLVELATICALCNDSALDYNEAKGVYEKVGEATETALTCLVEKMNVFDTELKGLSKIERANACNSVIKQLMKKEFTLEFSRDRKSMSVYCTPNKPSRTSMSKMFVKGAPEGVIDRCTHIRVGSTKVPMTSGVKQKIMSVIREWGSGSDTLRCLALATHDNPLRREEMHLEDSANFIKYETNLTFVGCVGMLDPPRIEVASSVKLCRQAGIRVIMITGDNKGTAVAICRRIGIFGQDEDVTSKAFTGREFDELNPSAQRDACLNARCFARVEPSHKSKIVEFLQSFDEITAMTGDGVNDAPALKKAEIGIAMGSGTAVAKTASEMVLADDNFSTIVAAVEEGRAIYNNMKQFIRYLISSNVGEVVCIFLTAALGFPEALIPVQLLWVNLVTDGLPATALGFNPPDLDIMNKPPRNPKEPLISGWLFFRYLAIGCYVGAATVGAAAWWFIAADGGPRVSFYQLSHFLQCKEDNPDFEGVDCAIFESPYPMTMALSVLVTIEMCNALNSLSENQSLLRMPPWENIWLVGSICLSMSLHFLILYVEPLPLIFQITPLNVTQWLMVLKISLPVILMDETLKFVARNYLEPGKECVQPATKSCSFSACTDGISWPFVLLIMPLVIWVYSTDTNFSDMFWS

Row | Compound | cell toxicity (viability level) [1] | induced inflammation marker CXCL10 cytokine [2] | induced inflammation marker CXCL10 cytokine [3] | cell toxicity (viability level) (Panc02 cells) | induced inflammation marker Interferon-β (IFN-β) [4] | macroscopic observation of skin at the injection site (signs of toxicity) (mice) | cell toxicity (viability level) (KPC cells) | IC50 (SERCA2) | CXCL10 mRNA levels (Trex1 KO MEFs) | IFN-β mRNA levels (Trex1 KO MEFs) | ISG15 mRNA levels (Trex1 KO MEFs) | IFN-β gene expression (WT-MEF cells)
1 | C/C=C(/C)C(=O)O[C@H]1C(C)=C2[C@H]([C@@H]1OC(=O)CCCCCCC)[C@@](C)(OC(C)=O)C[C@H](OC(=O)CCC)[C@@]1(O)[C@H]2OC(=O)[C@@]1(C)O [Thapsigargin, (3S,3aR,4S,6S,6aR,7S,8S,9bS)-6-(Acetyloxy)-4-(butyryloxy)-3,3a-dihydroxy-3,6,9-trimethyl-8-{[(2Z)-2-methylbut-2-enoyl]oxy}-2-oxo-2,3,3a,4,5,6,6a,7,8,9b-decahydroazuleno[4,5-b]furan-7-yl octanoate] | low cell toxicity | potentiation | potentiation | low cell toxicity | potentiation | did not display signs of toxicity | low cell toxicity | < 15 nM | increase | increase | increase | 
2 | Nc1ncnc2c1ncn2[C@@H]1O[C@@H]2COP(=O)([S-])O[C@@H]3[C@H](O)[C@@H](COP([O-])(=S)O[C@H]2[C@H]1O)O[C@H]3n1cnc2c(N)ncnc21.[Na+].[Na+] (some centres unmarked) [ADU-S100] | low cell toxicity |  |  | low cell toxicity |  | did not display signs of toxicity | low cell toxicity |  |  |  |  | 
3 | CC(=O)C1=C(O)[C@@H]2[C@H]3c4c[nH]c5cccc(c45)C[C@H]3C(C)(C)N2C1=O [CPA, (6aR,11aS,11bR)-10-Acetyl-11-hydroxy-7,7-dimethyl-2,6,6a,7,11a,11b-hexahydro-9H-pyrrolo[1′,2′:2,3]isoindolo[4,5,6-cd]indol-9-one] |  |  |  |  |  |  |  | < 2500 nM | increase | increase | increase | 
4 | Cc1ccc2cccc(NC(=O)c3ccc(OC(C)C)cc3)c2n1 [CDN-1163, N-(2-methylquinolin-8-yl)-4-propan-2-yloxybenzamide] |  |  |  |  |  |  |  |  |  |  |  | inhibits
